# Results published in PubChem BioAssay AID602466 (Sanford-Burnham Center for Chemical Genomics, 2012).
# Calls of active or inactive are those of the source. The rule behind the calls is not given here.
# Target: Neurotensin receptor type 1 (Homo sapiens) (UniProt P30989)
# Experiment: agonism at neurotensin receptor 1, calcium rise – cell-based, fluorescence, calcium flux, single concentration, SAR follow-up (AID 602466)
# Settings: NTR1-expressing cells, at 30 µM (top of the series)
# Neurotensin receptor type 1 (Homo sapiens), sequence (P30989 whole entry, looked up): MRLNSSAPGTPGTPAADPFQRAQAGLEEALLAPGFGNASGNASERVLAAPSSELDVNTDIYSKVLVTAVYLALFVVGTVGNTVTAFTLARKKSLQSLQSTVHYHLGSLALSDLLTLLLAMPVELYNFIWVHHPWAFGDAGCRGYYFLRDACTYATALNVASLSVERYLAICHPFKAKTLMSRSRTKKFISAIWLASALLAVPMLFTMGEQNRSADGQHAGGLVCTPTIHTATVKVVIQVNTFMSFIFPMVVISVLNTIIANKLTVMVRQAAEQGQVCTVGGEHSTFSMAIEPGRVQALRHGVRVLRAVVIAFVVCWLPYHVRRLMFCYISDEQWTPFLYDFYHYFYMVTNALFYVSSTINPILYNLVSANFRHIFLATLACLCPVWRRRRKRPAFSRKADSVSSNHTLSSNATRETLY
row,SMILES,activation
1,COc1cc2c3nnc(-c4ccc(Cl)cc4)c-3cn(Cc3ccccc3)c2cc1OC,99.2%
2,COc1cc2c3nnc(-c4ccc(C)cc4)c-3cn(Cc3ccc(C)cc3)c2cc1OC,132%
3,COc1cccc(OC)c1-c1nc(C(=O)NC2(C(=O)O)C3CC4CC(C3)CC2C4)cn1-c1ccnc2cc(Cl)ccc12 (stereo not given),12.4% (inactive)
4,COc1cc2c3nnc(-c4ccc(F)cc4)c-3cn(Cc3ccc(C)cc3)c2cc1OC,115%
5,COc1cccc(OC)c1-c1nc(C(=O)N[C@@H](CC(C)C)C(=O)O)cn1-c1ccnc2cc(Cl)ccc12,102%
6,COc1cc2c3nnc(-c4ccc(F)cc4)c-3cn(Cc3ccc(F)cc3)c2cc1OC,95.3%
7,COc1ccccc1-c1cc(C(=O)N[C@@H](CC(C)C)C(=O)O)nn1-c1ccnc2cc(Cl)ccc12,11.9%
8,COc1ccc2c(c1)c1nnc(-c3ccc(F)cc3)c-1cn2Cc1ccccc1,10.2% (inactive)
9,COc1cc2c3nnc(-c4ccc(C)c(C)c4)c-3cn(Cc3ccc(F)cc3)c2cc1OC,38.2% (inactive)
10,COc1ccc(-c2nnc3c4cc(OC)c(OC)cc4n(Cc4ccc(C)cc4)cc2-3)cc1,7.03% (inactive)
11,COc1cc2c3nnc(-c4ccc(C)cc4)c-3cn(Cc3ccc(F)cc3)c2cc1OC,90.8%
12,Cc1ccc(Cn2cc3c(-c4ccc(F)cc4)nnc-3c3cc4c(cc32)OCO4)cc1,13.4% (inactive)
13,COc1cc2c3nnc(-c4ccc(F)cc4)c-3cn(Cc3ccc(OC(F)(F)F)cc3)c2cc1OC,2.56% (inactive)
14,COc1cccc(OC)c1-c1cc(C(=O)N[C@@H](CC(C)C)C(=O)O)nn1-c1ccnc2cc(Cl)ccc12,48.7%
15,COc1cc2c3nnc(-c4ccc(C)c(C)c4)c-3cn(Cc3ccc(C)cc3)c2cc1OC,131%
16,COc1cc2c3nnc(-c4ccccc4)c-3cn(Cc3ccccc3)c2cc1OC,55%
17,COc1cc2c3nnc(-c4ccc(F)cc4)c-3cn(Cc3ccccc3)c2cc1OC,110%
18,COc1ccc2c(c1)c1nnc(-c3ccc(F)cc3)c-1cn2Cc1ccc(F)cc1,39.5% (inactive)
19,COc1cccc(OC)c1-c1nc(C(=O)N[C@@H](CC(C)C)C(=O)O)cn1-c1cccc2ccccc12,110%
20,Cc1cccc(C)c1-c1nc(C(=O)N[C@@H](CC(C)C)C(=O)O)cn1-c1ccnc2cc(Cl)ccc12,37.7%
21,COc1ccc(Cn2cc3c(-c4ccc(F)cc4)nnc-3c3cc(OC)c(OC)cc32)cc1,56.6%
22,COc1cc2c3nnc(-c4ccc(Cl)cc4)c-3cn(Cc3ccc(F)cc3)c2cc1OC,187%
23,COc1ccc(-c2nc(C(=O)N[C@@H](CC(C)C)C(=O)O)cn2-c2ccnc3cc(Cl)ccc23)c(OC)c1,35.9% (inactive)
24,COc1cc2c3nnc(-c4ccc(F)cc4)c-3cn(Cc3cccc(C)c3)c2cc1OC,191%
25,Cc1ccc(Cn2cc3c(-c4ccc(F)cc4)nnc-3c3ccccc32)cc1,9.46% (inactive)
26,COc1cc2c3nnc(-c4ccc(F)cc4)c-3cn(Cc3ccccc3N(C)C)c2cc1OC,37.2% (inactive)
27,COc1cc2nc(C)nc(N3CCN(c4ccccc4OC)CC3)c2cc1OC,17.5% (inactive)
28,COc1cc2nc(-c3ccccc3)nc(N3CCN(c4ccccc4OC)CC3)c2cc1OC,60.6%
29,COc1cc2nc(C3CCC3)nc(N3CCN(c4ccccc4C)CC3)c2cc1OC,9.85% (inactive)
30,COc1cc2c3nnc(-c4ccc(F)cc4)c-3cn(Cc3ccc(Cl)cc3)c2cc1OC,67.8%
